Columns and labels:
VEGF [1] = target: T1, VEGF (Homo sapiens, UniProt P15692); format: binding; conditions: Fig. 1b; varying concentrations of VEGF; microspheres containing lysine modified dimers
T1 sequence (P15692 1-191 isoform P15692-4): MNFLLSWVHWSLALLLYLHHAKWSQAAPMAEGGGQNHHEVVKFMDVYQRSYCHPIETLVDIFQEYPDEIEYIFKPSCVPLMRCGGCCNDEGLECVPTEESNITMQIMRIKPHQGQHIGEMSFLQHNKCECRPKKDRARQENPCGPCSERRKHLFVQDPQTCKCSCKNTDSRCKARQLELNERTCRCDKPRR

VEGF [2] = target: T1, VEGF; experiment: Release of VEGF from functionalized microspheres; conditions: for bound VEGF released in 24 hours: microspheres incubated in a medium containing 10% FBS; for VEGF release relative to monomer microspheres (in words) / duration of sustained VEGF release: microspheres pre-incubated in 40 ng/ml VEGF solution (Fig. 3a)
[3] = tested on: uterine artery endothelial cells (UAECs); conditions: 10 ng/ml VEGF-165; compared with VEGF-free condition

Substance | VEGF binding efficiency over a range of VEGF concentrations (in words) (VEGF [1]) | bound VEGF released in 24 hours (VEGF [2]) [%] | VEGF release relative to monomer microspheres (in words) (VEGF [2]) | duration of sustained VEGF release (VEGF [2]) | percent of responding UAECs (in words) [3]
(EFdAdYdLdIDFNWEYPAS)2KKKC [dimerb] | consistently showed a higher VEGF binding efficiency than dimera | 72 ± 2 | released significantly more VEGF and over a longer period of time relative to microspheres containing the monomer version | over 30 days | 
(EFdAdYdLdIDFNWEYPASK)2KC [dimera] |  | 48 ± 5 | released significantly more VEGF and over a longer period of time relative to microspheres containing the monomer version | over 30 days | reduced to the same level as the VEGF-free condition

Reference: publication PMC3925890 (Advanced healthcare materials, 2012)
